Drawing on patent US11492346B2, “Benzisoxazole sulfonamide derivatives” (Pfizer Inc., priority 2019, dated 2022), this text covers Ki for 44 compounds.

Like-named read-outs stand apart in the source and are kept apart here.

The target in one assay is KAT6A (Homo sapiens (Human), UniProt Q92794). The assay can be described thus: KAT assay (SAMDI mass spectrometry), KAT6A.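 Further: Baculovirus-expressed KAT6A acetylating histone H3 (1-21) peptide (2 µM), 30-60 min at room temperature, % product conversion fitted to Morrison equation for tight-binding competitive inhibitors.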 The class given is biochemical.
The next assay has as its target KAT7 (Homo sapiens (Human), UniProt O95251). The assay can be described thus: KAT assay (SAMDI mass spectrometry), KAT7.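 Further: Baculovirus-expressed enzyme acetylating a histone peptide at room temperature, percent conversion from product and substrate peak areas, Ki from a Morrison tight-binding competitive fit.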 The class given is biochemical.
[1] abbreviates: read-out: KAT6a Ki at 1 μM AcCoA, 1 μM AcCoA.
The mark [2] stands for this setting: read-out: KAT6a Ki at 10 μM AcCoA, 10 μM AcCoA.
Where [3] appears, read: read-out: KAT7 Ki at 1 μM AcCoA.
Where [4] appears, read: KAT6a Ki at 1 μM AcCoA, 1 μM AcCoA.
Where [5] appears, read: KAT6a Ki at 10 μM AcCoA, 10 μM AcCoA.

Sequence of KAT7 (O95251 whole entry): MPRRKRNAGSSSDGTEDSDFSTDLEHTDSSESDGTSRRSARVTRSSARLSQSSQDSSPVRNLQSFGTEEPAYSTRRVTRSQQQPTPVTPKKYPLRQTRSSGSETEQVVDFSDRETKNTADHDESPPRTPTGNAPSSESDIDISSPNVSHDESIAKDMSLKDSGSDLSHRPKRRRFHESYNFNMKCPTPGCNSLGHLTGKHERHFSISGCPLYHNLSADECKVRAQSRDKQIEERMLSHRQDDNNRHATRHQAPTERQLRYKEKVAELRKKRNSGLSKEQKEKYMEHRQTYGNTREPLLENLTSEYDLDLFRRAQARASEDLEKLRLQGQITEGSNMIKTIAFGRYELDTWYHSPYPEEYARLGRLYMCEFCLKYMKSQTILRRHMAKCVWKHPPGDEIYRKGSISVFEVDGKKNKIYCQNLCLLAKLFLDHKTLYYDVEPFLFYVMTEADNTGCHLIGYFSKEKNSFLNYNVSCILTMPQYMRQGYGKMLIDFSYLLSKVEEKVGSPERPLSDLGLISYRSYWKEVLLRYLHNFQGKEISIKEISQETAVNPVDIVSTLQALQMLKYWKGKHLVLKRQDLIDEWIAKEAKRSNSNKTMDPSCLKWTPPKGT
Sequence of KAT6A (Q92794 whole entry): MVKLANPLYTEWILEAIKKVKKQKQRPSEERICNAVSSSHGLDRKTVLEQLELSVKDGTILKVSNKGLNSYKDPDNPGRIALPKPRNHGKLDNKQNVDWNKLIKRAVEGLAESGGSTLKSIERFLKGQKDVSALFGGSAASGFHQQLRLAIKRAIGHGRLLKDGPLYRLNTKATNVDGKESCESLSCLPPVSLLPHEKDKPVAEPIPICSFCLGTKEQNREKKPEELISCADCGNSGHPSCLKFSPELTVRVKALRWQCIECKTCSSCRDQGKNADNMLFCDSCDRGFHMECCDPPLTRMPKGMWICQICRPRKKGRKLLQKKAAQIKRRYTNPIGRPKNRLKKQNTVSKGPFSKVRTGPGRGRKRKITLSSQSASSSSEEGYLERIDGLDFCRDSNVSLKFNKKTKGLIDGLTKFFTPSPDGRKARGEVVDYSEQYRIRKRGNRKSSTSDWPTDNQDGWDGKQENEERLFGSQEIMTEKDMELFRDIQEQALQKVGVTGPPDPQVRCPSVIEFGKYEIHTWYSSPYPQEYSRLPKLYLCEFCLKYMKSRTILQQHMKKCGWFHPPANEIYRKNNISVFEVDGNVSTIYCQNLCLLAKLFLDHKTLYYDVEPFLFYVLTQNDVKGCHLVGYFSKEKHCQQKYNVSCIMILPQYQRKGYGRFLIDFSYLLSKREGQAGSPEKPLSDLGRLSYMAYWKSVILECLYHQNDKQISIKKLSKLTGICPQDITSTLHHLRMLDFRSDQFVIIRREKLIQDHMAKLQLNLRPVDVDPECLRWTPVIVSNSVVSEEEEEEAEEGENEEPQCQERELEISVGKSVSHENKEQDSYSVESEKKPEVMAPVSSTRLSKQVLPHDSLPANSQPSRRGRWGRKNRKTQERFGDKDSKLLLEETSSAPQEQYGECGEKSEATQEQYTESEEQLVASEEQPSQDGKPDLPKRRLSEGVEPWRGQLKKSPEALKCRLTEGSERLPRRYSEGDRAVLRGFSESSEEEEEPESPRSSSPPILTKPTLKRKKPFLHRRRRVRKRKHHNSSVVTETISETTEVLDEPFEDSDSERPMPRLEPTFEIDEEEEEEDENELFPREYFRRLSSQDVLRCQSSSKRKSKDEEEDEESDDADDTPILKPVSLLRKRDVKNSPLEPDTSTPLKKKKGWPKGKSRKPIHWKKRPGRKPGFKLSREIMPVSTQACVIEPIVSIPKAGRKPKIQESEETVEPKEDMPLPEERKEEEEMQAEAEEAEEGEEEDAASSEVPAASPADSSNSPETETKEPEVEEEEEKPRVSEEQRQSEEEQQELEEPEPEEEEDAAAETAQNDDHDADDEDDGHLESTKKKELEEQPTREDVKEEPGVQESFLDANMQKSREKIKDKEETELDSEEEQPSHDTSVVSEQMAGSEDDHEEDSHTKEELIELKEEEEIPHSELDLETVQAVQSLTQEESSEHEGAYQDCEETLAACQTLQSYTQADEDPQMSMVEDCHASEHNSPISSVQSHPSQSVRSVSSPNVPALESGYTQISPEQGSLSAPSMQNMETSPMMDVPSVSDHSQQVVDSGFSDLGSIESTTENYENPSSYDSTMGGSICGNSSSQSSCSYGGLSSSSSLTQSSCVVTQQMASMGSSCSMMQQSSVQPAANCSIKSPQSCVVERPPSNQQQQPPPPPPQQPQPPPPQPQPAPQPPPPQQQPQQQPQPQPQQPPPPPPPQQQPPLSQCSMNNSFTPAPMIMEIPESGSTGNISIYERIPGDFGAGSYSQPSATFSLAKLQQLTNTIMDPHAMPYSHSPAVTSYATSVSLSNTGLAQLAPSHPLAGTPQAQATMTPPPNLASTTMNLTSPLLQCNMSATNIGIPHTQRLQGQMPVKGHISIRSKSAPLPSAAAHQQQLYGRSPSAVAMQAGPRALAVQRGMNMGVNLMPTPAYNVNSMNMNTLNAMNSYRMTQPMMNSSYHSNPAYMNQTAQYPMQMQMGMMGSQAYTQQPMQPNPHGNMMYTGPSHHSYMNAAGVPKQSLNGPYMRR
Experimental for KAT6A: (§1) Prepare 10 mM stock solutions in 100% DMSO from solid material • 2. Serial dilute 10 mM, 1 mM or 0.1 mM compound stocks 3-fold in 100% DMSO for 11-point dose response
(§2) Prepare 1× assay buffer containing 10 mM Tris HCL pH 8.0, 2.5 mM NaCl, 0.5 mM EDTA, 0.005% BSG and 0.02% Tween-20 • 2. Dilute Histone peptide (CPC Scientific) and AcCoA (Sigma) together in assay buffer to 2×. • 3. Dilute KAT enzyme in assay buffer to 2×.
(§3) Enzyme reaction • 1. Final reaction conditions for each KAT assay in a 20 ul assay reaction volume: • i. KAT5 25 nM, 1 uM AcCoA, 2 uM H4 1-21 peptide, 30-minute reaction • ii. KAT6A 15 nM, 1 uM AcCoA, 2 uM H3 1-21 peptide, 45-minute reaction • iii. KAT6B 25 nM, 1 uM AcCoA, 2 uM H3 1-21 peptide, 60-minute reaction • iv. KAT7 12.5 nM, 1 uM AcCoA, 2 uM H3 1-21 peptide, 45-minute reaction • v. KAT8 15 nM, 1 uM AcCoA, 2 uM H3 1-21 peptide, 45-minute reaction • 2. Add 0.5 ul of diluted compound to the assay plate (384-well V-bottom polypropylene plates) or 0.5 ul of DMSO for control wells. • 3. Add 10 ul of 2× Histone peptide/2×AcCoA mix to the assay plate. • 4. Add 10 ul of 2× enzyme to the assay plate. • 5. Stop the reaction after the indicated time with the addition of 2 ul of 5% formic acid • 6. Each reaction was analyzed using self-assembled monolayer desorption/ionization time-of-flight mass spectrometry (Mrksich, Milan (2008) Mass Spectrometry of Self-Assembled Monolayers: A New Tool for Molecular Surface Science ACS Nano 2008 2 (1), 7-18; SAMDI Tech, Inc. (Chicago, Ill.)). • 7. Area under the curve (AUC) for both substrate and product peaks was determined for KAT5 at M.W. 2561 [Substrate+H]^+ and 2603 [Product+H]^+ with a +/−1 Da tolerance, respectively • 8. Area under the curve (AUC) for both substrate and product peaks was determined for KAT6a, KAT6B, KAT7 and KAT8 at M.W. 2723 [Substrate+H]^+ and 2765 [Product+H]^+ with a +/−1 Da tolerance, respectively. […] Percent conversion to product was calculated by: AUCProduct/(AUCsubstrate+AUCProduct).
(§4) IC50 values were determined by fitting the % conversion at each inhibitor concentration to the 4-parameter IC50 equation using Pfizer proprietary curve fitting software. • 2. Ki values were determined by fitting the % conversion at each inhibitor concentration to the Morrison equation for tightbinding competitive inhibitors using Pfizer proprietary curve fitting software.
(§5) KAT enzymes were expressed using a baculovirus expression system and purified at Pfizer, La Jolla. […] Acetyl coenzyme A was purchased from Sigma-Aldrich (St. Louis, Mo.). All other biochemical reagents were purchased from Sigma-Aldrich or ThermoFisher Scientific (Waltham, Mass.).
(§6) KAT assays were performed at room temperature in assay buffer containing 1 μM AcCoA, 2 μM histone peptide, 10 mM Tris HCL pH 8.0, 2.5 mM NaCl, 0.5 mM EDTA, 0.005% BSG and 0.02% Tween-20. 10 ul of 2× Histone peptide/AcCoA mix was added to a 384-well V-bottom polypropylene assay plate containing 0.5 ul of serially diluted test compound in 100% dimethyl sulfoxide (DMSO). To start the reaction, 10 ul of 2× enzyme solution was added to the assay plate. KAT assays were terminated after 30-60 minutes with the addition of 2 ul of 5% formic acid. All assays used histone H3 (1-21) peptide except for the KAT5 assay which used histone H4 (1-21) peptide. The final enzyme concentration for each KAT was as follows: KAT5, 25 nM; KAT6A, 15 nM; KAT6B, 25 nM; KAT7, 12.5 nM; KAT8 15 nM. Each reaction was analyzed using self-assembled monolayer desorption/ionization time-of-flight mass spectrometry (Mrksich, Milan (2008) Mass Spectrometry of Self-Assembled Monolayers: A New Tool for Molecular Surface Science ACS Nano 2008 2 (1), 7-18; SAMDI Tech, Inc. (Chicago, Ill.)).
(§7) Area under the curve (AUC) for both substrate and product peaks was determined for KAT5 at M.W. 2561 [Substrate+H]^+ and 2603 [Product+H]^+ with a +/−1 Da tolerance, respectively.
Experimental for KAT7: as §1, §2, §3, §4, §5, §6, §7

Regarding `COc1cc(Cn2cccn2)cc2onc(NS(=O)(=O)c3cc(F)c(F)c(F)c3)c12` [Example 64], the Ki came to 25.3 nM on KAT6A (setting [1]), 11 nM on KAT6A (setting [2]) and 630 nM at KAT7 (setting [3]).
As for `COCc1ccc(OC)c(S(=O)(=O)Nc2noc3cc(Cn4cccn4)ccc23)c1` [Example 37], the Ki on KAT6A (setting [1]) was 17 nM; at KAT7 (setting [3]), 4600 nM.
For `COc1ccc(O)c(OC)c1S(=O)(=O)Nc1noc2cc(Cn3cccn3)cc(OC)c12` [Example 103, 3-hydroxy-2,6-dimethoxy-N-{4-methoxy-6-[(1H-pyrazol-1-yl)methyl]-1,2-benzoxazol-3-yl}benzene-1-sulfonamide], the values for the Ki at KAT6A (setting [1]), at KAT6A (setting [2]) and on KAT7 (setting [3]) were 0.3 nM, 0.51 nM and 150 nM, respectively.
For `COc1cccc(OC)c1S(=O)(=O)Nc1noc2cc(C(O)c3cnccn3)cc(OC)c12` (centres unmarked) [Example 123], the Ki on KAT6A (setting [1]) is 138 nM; on KAT7 (setting [3]), 4600 nM.
Take `COc1cccc(S(=O)(=O)Nc2noc3cc(Cn4cccn4)cc(OC)c23)c1` [Example 59]: the Ki was determined as 13 nM on KAT6A (setting [1]), 6.25 nM at KAT6A (setting [2]) and 220 nM at KAT7 (setting [3]).
As for `CCc1nc2cc(S(=O)(=O)Nc3noc4cc(Cn5cccn5)cc(OC)c34)ccc2o1` [Example 81], the Ki was 18.2 nM on KAT6A (setting [1]), 9.96 nM at KAT6A (setting [2]) and 1620 nM on KAT7 (setting [3]).
Turning to `COc1cccc(OC)c1S(=O)(=O)Nc1noc2cc(Cc3cnccn3)cc(OC)c12` [Example 111, 2,6-dimethoxy-N-[4-methoxy-6-(pyrazin-2-ylmethyl)-1,2-benzoxazol-3-yl]benzenesulfonamide], the Ki at KAT6A (setting [1]) was 13 nM; at KAT7 (setting [3]), 390 nM.
Take `COc1cc(C)ccc1S(=O)(=O)Nc1noc2cc(Cn3cccn3)ccc12` [Example 38]: the results for the Ki on KAT6A (setting [1]) and at KAT7 (setting [3]) were 16 nM and 530 nM, respectively.
Turning to `COc1cccc(OC)c1S(=O)(=O)Nc1noc2cc(C(O)c3ncco3)cc(OC)c12` (single isomer, unassigned) [Example 109, N-{6-[(R*)-hydroxy(1,3-oxazol-2-yl)methyl]-4-methoxy-1,2-benzoxazol-3-yl}-2,6-dimethoxybenzenesulfonamide], the values for the Ki on KAT6A (setting [4]) and at KAT7 (KAT7 Ki at 1 μM AcCoA) were 44 nM and 3100 nM, respectively.
In the case of `COc1ccc(S(=O)(=O)Nc2noc3cc(Cn4cccn4)cc(OC)c23)c(C)c1F` [Example 85], the Ki turned out to be 13.3 nM on KAT6A (setting [1]), 8.77 nM at KAT6A (setting [2]) and 1140 nM at KAT7 (setting [3]).
In the case of `COc1cc2c(cc1S(=O)(=O)Nc1noc3cc(Cn4cccn4)cc(OC)c13)CCOC2` [Example 43], the Ki at KAT6A (setting [1]) turned out to be 3.6 nM; on KAT7 (setting [3]), 570 nM.
`CCOc1ccc(S(=O)(=O)Nc2noc3cc(Cn4cccn4)cc(OC)c23)cc1` [Example 69]: the Ki at KAT6A (setting [2]) was 9.1 nM; at KAT7 (setting [3]), 370 nM.
`COc1cc(Cn2cccn2)cc2onc(NS(=O)(=O)c3ccc(OC4CC4)cc3)c12` [Example 60]: the Ki worked out at 9.81 nM on KAT6A (setting [1]), 4.64 nM on KAT6A (setting [2]) and 420 nM on KAT7 (setting [3]).
As to `COc1cccc(OC)c1S(=O)(=O)Nc1noc2cc(C(O)c3ncco3)cc(OC)c12` (single isomer, unassigned) [Example 108, N-{6-[(S*)-hydroxy(1,3-oxazol-2-yl)methyl]-4-methoxy-1,2-benzoxazol-3-yl}-2,6-dimethoxybenzenesulfonamide], the Ki at KAT6A (setting [4]) came to 72 nM; on KAT7 (KAT7 Ki at 1 μM AcCoA) it was 1300 nM.
Take `COC(=O)c1c(C)cccc1S(=O)(=O)Nc1noc2cc(Cn3cccn3)cc(OC)c12` [Example 74]: the Ki at KAT6A (setting [1]) amounted to 24.8 nM; at KAT6A (setting [2]), 13.6 nM; on KAT7 (setting [3]), 2870 nM.
`COc1cccc(OC)c1S(=O)(=O)Nc1noc2cc(Cn3ncc4ccccc43)cc(OC)c12` [Example 30]: the Ki at KAT6A (setting [1]) came out at 60 nM; on KAT7 (setting [3]), 1100 nM.
Consider `COc1cc(Cn2cccn2)cc2onc(NS(=O)(=O)c3cccc(C(F)(F)F)c3)c12` [Example 53], for which the results for the Ki at KAT6A (setting [1]), on KAT6A (setting [2]) and on KAT7 (setting [3]) were 16.1 nM, 8.78 nM and 300 nM, respectively.
`COc1cccc(OC)c1S(=O)(=O)Nc1noc2cc(C(O)c3cc[nH]n3)cc(OC)c12` (single isomer, unassigned) [Example 117]: the Ki on KAT6A (setting [4]) was 202 nM; at KAT7 (KAT7 Ki at 1 μM AcCoA) it was 200 nM.
With `COc1cccc(OC)c1S(=O)(=O)Nc1noc2cc(C(O)c3cnoc3)cc(OC)c12` (single isomer, unassigned) [Example 120], the results for the Ki at KAT6A (setting [4]), at KAT6A (setting [5]) and at KAT7 (KAT7 Ki at 1 μM AcCoA) were 831 nM, 212 nM and 2400 nM, respectively.
As for `COc1ccc(S(=O)(=O)Nc2noc3cc(Cn4cccn4)ccc23)c(OC)c1` [Example 35], the Ki at KAT6A (setting [1]) amounted to 15 nM; at KAT7 (setting [3]), 420 nM.
With `COc1cc(Cn2cccn2)cc2onc(NS(=O)(=O)c3ccc(C(F)(F)F)cc3)c12` [Example 46], the Ki on KAT6A (setting [1]) was found to be 32.9 nM; at KAT6A (setting [2]), 13.1 nM; at KAT7 (setting [3]) it was 1030 nM.
Turning to `COc1cccc(OC)c1S(=O)(=O)Nc1noc2cc(C(O)c3ccccn3)cc(OC)c12` (centres unmarked) [Example 106, N-{6-[hydroxy(pyridin-2-yl)methyl]-4-methoxy-1,2-benzoxazol-3-yl}-2,6-dimethoxybenzenesulfonamide], the values for the Ki on KAT6A (setting [1]) and on KAT7 (setting [3]) were 35 nM and 1900 nM, respectively.
In the case of `COc1ccc(Cl)cc1S(=O)(=O)Nc1noc2cc(Cn3cccn3)ccc12` [Example 36], the figures for the Ki on KAT6A (setting [1]) and on KAT7 (setting [3]) were 17 nM and 980 nM, respectively.
On to `COc1cc(Cn2cccn2)cc2onc(NS(=O)(=O)c3ccccc3C(F)(F)F)c12` [Example 52], for which the Ki worked out at 14.6 nM on KAT6A (setting [1]), 7.32 nM at KAT6A (setting [2]) and 660 nM on KAT7 (setting [3]).
`COc1ccc(O)c(S(=O)(=O)Nc2noc3cc(Cn4cccn4)cc(OC)c23)c1` [Example 83]: the results for the Ki at KAT6A (setting [1]), on KAT6A (setting [2]) and on KAT7 (setting [3]) were 13.7 nM, 7.76 nM and 780 nM, respectively.
Take `COc1cccc(OC)c1S(=O)(=O)Nc1noc2cc(Cc3cnoc3)cc(OC)c12` [Example 122]: the results for the Ki on KAT6A (setting [1]), at KAT6A (setting [2]) and on KAT7 (setting [3]) were 164 nM, 25 nM and 7400 nM, respectively.
On to `COc1cc(Cn2cccn2)cc2onc(NS(=O)(=O)c3c(F)cc(C)cc3F)c12` [Example 62], for which the Ki on KAT6A (setting [1]) was determined as 9.64 nM; on KAT6A (setting [2]) it was 3.9 nM; on KAT7 (setting [3]), 360 nM.
For `COc1ccccc1S(=O)(=O)Nc1noc2cc(Cn3cccn3)c(C)cc12` [Example 132], the Ki at KAT6A (setting [1]) turned out to be 4.1 nM; at KAT7 (setting [3]), 124 nM.
`COc1cc(Cn2cccn2)cc2onc(NS(=O)(=O)c3cc(C)cc(C)c3)c12` [Example 48]: the Ki amounted to 14.9 nM on KAT6A (setting [1]), 6.51 nM at KAT6A (setting [2]) and 410 nM at KAT7 (setting [3]).
For the compound `COc1cccc(OC)c1S(=O)(=O)Nc1noc2cc(C(O)c3cocn3)cc(OC)c12` (single isomer, unassigned) [Example 126], the Ki turned out to be 230 nM on KAT6A (setting [4]) and 4150 nM at KAT7 (KAT7 Ki at 1 μM AcCoA).
For the compound `COc1cccc(OC)c1S(=O)(=O)Nc1noc2cc(Cn3cccn3)cc(Cl)c12` [Example 33], the Ki on KAT6A (setting [1]) turned out to be 3.1 nM; on KAT7 (setting [3]) it was 310 nM.
In the same order, the values of `COc1cc(Cn2cccn2)cc2onc(NS(=O)(=O)c3cc(F)cc(F)c3)c12` [Example 57] are 16 nM and 450 nM.
As to `COc1cccc(O)c1S(=O)(=O)Nc1noc2cc(Cn3cccn3)cc(OC)c12` [Example 104, 2-hydroxy-6-methoxy-N-{4-methoxy-6-[(1H-pyrazol-1-yl)methyl]-1,2-benzoxazol-3-yl}benzene-1-sulfonamide], the Ki at KAT6A (setting [1]) amounted to 6.11 nM; on KAT6A (setting [2]) it was 3.89 nM; on KAT7 (setting [3]), 2060 nM.
`COc1cc(Cn2cccn2)cc2onc(NS(=O)(=O)c3cc(F)ccc3C)c12` [Example 49]: the results for the Ki on KAT6A (setting [1]), at KAT6A (setting [2]) and at KAT7 (setting [3]) were 9.77 nM, 4.14 nM and 370 nM, respectively.
On to `COc1ccccc1S(=O)(=O)Nc1noc2cc(Cn3cccn3)c(F)c(OC)c12` [Example 129], for which the results for the Ki at KAT6A (setting [1]) and at KAT7 (setting [3]) were 0.33 nM and 10.6 nM, respectively.
Turning to `COc1cc(Cn2cccn2)cc2onc(NS(=O)(=O)c3cccc(F)c3Cl)c12` [Example 63], the Ki at KAT6A (setting [1]) stood at 15.8 nM; at KAT6A (setting [2]), 10.9 nM; at KAT7 (setting [3]), 940 nM.
`COc1cccc(OC)c1S(=O)(=O)Nc1noc2cc(C(O)c3ccon3)cc(OC)c12` (single isomer, unassigned) [Example 112]: the Ki at KAT6A (setting [4]) worked out at 82 nM; on KAT7 (KAT7 Ki at 1 μM AcCoA), 1500 nM.
As for `COc1cccc(OC)c1S(=O)(=O)Nc1noc2cc(Cn3cc(O)cn3)cc(OC)c12` [Example 105, N-{6-[(4-hydroxy-1H-pyrazol-1-yl)methyl]-4-methoxy-1,2-benzoxazol-3-yl}-2,6-dimethoxybenzene-1-sulfonamide], the Ki at KAT6A (setting [1]) came out at 3.08 nM; on KAT6A (setting [2]) it was 6.28 nM; on KAT7 (setting [3]), 230 nM.
On to `COc1cc(OC)cc(S(=O)(=O)Nc2noc3cc(Cn4cccn4)cc(OC)c23)c1` [Example 80], for which the results for the Ki at KAT6A (setting [1]), on KAT6A (setting [2]) and at KAT7 (setting [3]) were 15.6 nM, 5.32 nM and 360 nM, respectively.
Regarding `COc1ccccc1S(=O)(=O)Nc1noc2cc(Cn3nccn3)cc(OC)c12` [Example 133], the figures for the Ki on KAT6A (setting [1]) and at KAT7 (setting [3]) were 2.9 nM and 19.2 nM, respectively.
`CCOc1cc2c(NS(=O)(=O)c3c(OC)cccc3OC)noc2cc1Cn1cccn1` [Example 40]: the Ki at KAT6A (setting [1]) turned out to be 0.47 nM; on KAT7 (setting [3]), 380 nM.
Turning to `COc1cc(Cn2cccn2)cc2onc(NS(=O)(=O)c3cc(F)c(Cl)cc3F)c12` [Example 68], the inhibitory constant (Ki) on KAT6A (setting [1]) was 14.9 nM; on KAT6A (setting [2]) it was 10.5 nM; at KAT7 (setting [3]) it was 250 nM.
With `COc1cccc(OC)c1S(=O)(=O)Nc1noc2cc(C(O)c3cnoc3)cc(OC)c12` (single isomer, unassigned) [Example 121], the Ki on KAT6A (setting [4]) is 1580 nM; on KAT6A (setting [5]), above 600 nM; on KAT7 (KAT7 Ki at 1 μM AcCoA), above 15000 nM.
With `COc1cccc(OC)c1S(=O)(=O)Nc1noc2cc(C(O)c3ncccn3)cc(OC)c12` (single isomer, unassigned) [Example 115], the Ki on KAT6A (setting [4]) was 1220 nM; at KAT7 (KAT7 Ki at 1 μM AcCoA) it was above 15000 nM.

The Ki is the equilibrium dissociation constant of an inhibitor or competing ligand from its target.
